Results on two compounds are retold here after US12612424B2, “HPK1 inhibitors and uses thereof” (Regor Pharmaceuticals, Inc., priority 2019, dated 2026).

Some results are limits rather than exact numbers.

As usually defined, the IC50 is the concentration needed to halve the response being measured. The EC50 is the concentration at which the effect is half-maximal.

The target in one assay is HPK1 (Homo sapiens, UniProt Q92918). The experiment in a line: HPK1 biochemical assay (ADP-GLO Kinase Assay). The following applies: B*: testing performed in a first testing facility; read-out: HPK1 IC50 (nM) Relative, B*. The method in brief: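 HPK1 (0.6 ng/μL final) activity was followed with MBP substrate and 10 μM ATP in Tris pH 7.5/MgCl2/BSA/DTT buffer, measured by ADP-Glo luminescence. Compounds were tested as 3-fold dilutions from 10 μM. IC50 came from a three-parameter logistic fit, with inhibition normalised to high/low controls.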
HPK1, sequence (Q92918 whole entry): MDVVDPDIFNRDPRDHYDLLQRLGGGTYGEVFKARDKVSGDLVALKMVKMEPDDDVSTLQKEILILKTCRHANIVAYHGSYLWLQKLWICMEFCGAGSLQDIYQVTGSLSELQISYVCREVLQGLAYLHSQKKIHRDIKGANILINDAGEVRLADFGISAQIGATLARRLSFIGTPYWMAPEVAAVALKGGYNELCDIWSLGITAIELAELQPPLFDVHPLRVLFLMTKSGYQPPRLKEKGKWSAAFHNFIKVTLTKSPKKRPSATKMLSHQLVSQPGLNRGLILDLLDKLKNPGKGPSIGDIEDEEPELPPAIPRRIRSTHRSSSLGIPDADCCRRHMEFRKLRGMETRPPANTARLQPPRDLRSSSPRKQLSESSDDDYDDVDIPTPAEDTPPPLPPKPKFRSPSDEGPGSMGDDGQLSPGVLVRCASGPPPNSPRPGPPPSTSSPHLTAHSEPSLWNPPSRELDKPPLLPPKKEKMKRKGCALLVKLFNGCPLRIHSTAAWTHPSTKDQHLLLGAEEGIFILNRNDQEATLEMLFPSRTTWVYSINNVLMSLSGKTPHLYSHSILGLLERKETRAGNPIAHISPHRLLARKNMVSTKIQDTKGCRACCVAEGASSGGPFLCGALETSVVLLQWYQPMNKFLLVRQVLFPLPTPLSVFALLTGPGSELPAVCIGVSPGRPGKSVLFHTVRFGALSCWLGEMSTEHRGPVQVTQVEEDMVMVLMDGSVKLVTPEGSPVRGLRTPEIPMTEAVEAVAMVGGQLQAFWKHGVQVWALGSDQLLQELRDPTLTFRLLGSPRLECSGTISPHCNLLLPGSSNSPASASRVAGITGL
On the technique in general: ADP-Glo first removes unused ATP, then detects ADP through luciferase.

Assay [1] deals with Human Pan T Cell (IL-2 release). The experiment in a line: IL2 released by human pan T cell upon anti-CD3/anti-CD28 stimulation (ELISA). The class given is cell-based. The conditions noted are these: human pan T cells; for maximal fold induction: 48 h, response of IL-2 over DMSO control, anti-CD3/anti-CD28, 48 hours, ELISA, read-out: IL-2 Max Fold Response. From the text:
For example, Example 5 describes such a functional assay for determining the effect of an HPK1 inhibitor on IL-2 & IFN-γ release upon stimulation of Pan T cells. The secreted IL-2 & IFN-γ can be measured/quantified by standard ELISA assay. Briefly, pan T cells can be isolated from peripheral blood (PB) mononuclear cells (MNCs), or PBMC, using commercially available kits, such as MACS (Miltenyl Biotec) Pan T isolation kit (Cat. No. 130-096-535). Primary human pan-T cells include CD4 and CD8 T cells as well as some gamma/delta T cell subsets. The pan-T cells can be isolated using the negative immunomagnetic separation technique without the use of columns.
Isolated pan-T cells can be dispensed into 96-well plates at 100,000 cells/well, and stimulated with immobilized anti-CD3 antibody and soluable anti-CD28 antibody, or PMA/Ionomycin as the positive control (or culture media as the negative control). Different concentrations of test compounds can be added to the cells to assess the compound effect on cytokine secretion following TCR-stimulation/CD28 co-stimulation. Stimulated cells are incubated for 2 more days, before the supernatant (containing secreted cytokines by pan-T cells) is collected from each well for ELISA assay and quantitation of IL-2 and IFN-γ.
Biology Example 8 Compound Efficacy Study on IL2 & IFN-γ Released by Human Pan T Cell
This example is an assay method that can be used to determine compound effects on IL2 & IFN-γ release using pan T cells and ELISA assay format.
3. Procedures Procedures for Pan T isolation and Reagent preparation (Day 0): 1. Cell Growth Medium: • RPMI1640: ATCC, Cat #30-2001 • 10% FBS: Gibco, Cat #10099141 • 1% Pen-Strep: Gibco, Cat #15140122 • 1% Non-essential amino: Gibco, Cat #11140050 • Beta-Mercaptoethanol: Gibco, Cat #21985023 2. Pan T Isolation Buffer Preparation:
Prepare a solution containing phosphate-buffered saline (PBS), pH 7.2, 0.5% bovine serum albumin (BSA), and 2 mM EDTA by diluting MACS® BSA Stock Solution (#130-091-376) 20 times with autoMACS® Rinsing Solution. Keep buffer at 4° C. Degas buffer before use, as air bubbles could block the column.
3. Thawing of Frozen PBMC • 1) Pre-heat medium at 37° C. water bath. • 2) Rapidly thaw cells in 37° C. water bath. • 3) Add the pre-warmed medium into 15 mL tube. Transfer cells to the tube. • 4) 300×g centrifuge for 8 min. (centrifuge increase 0, decrease 0). • 5) Wash the PBMC using Rinsing buffer. • 6) Centrifuge PBMC at 300×g for 8 min, wash it twice (centrifuge increase 9, decrease 1). • 7) Resuspend the cells with Pan T cells isolation buffer and count cells number. 4. Pan T Cells Isolation: Cell Staining with Microbead Cocktail • 1) Prepare cells and determine cell number. Filter cells by 70 μm cell strainer. • 2) Resuspend cell pellet in 40 μL of buffer per 10^7 total cells. • 3) Add 10 μL of Pan T Cell Biotin-Antibody Cocktail per 10^7 total cells. • 4) Mix well and incubate for 10 minutes in the refrigerator (ice). • 5) Add 30 μL of buffer per 10^7 total cells. • 6) Add 20 μL of Pan T Cell MicroBead Cocktail per 10^7 total cells. • 7) Mix well and incubate for 15 minutes in the refrigerator (ice). • 8) Proceed to subsequent magnetic cell separation. • Note: a. Work fast, keep cells cold, and use pre-cooled solutions (2-8° C.). b. Volumes for magnetic labeling given are for up to 10′ total cells. When working with fewer cells, use the same volumes as indicated. c. When working with higher cell numbers, scale up all reagent volumes and total volumes accordingly. d. For optimal performance it is important to obtain a single-cell suspension before magnetic labeling. Subsequent Manual Cell Separation: • 1) Place LS Column in the magnetic field of a suitable MACS Separator. For details refer to the respective MACS Column data sheet. • 2) Prepare column by rinsing with 3 mL of buffer. • 3) Apply cell suspension onto the column. Collect flow-through, which represents the enriched T cells. • 4) Wash column with 5 mL of buffer. […]

Turning to `COc1cc2c(cc1Nc1ncc(Cl)c(-n3cc(F)c4ccccc43)n1)CN(C)CC2` [Example 11, N-(5-Chloro-4-(3-fluoro-1H-indol-1-yl)pyrimidin-2-yl)-6-methoxy-2-methyl-1,2,3,4-tetrahydroisoquinolin-7-amine], the IC50 on HPK1 is at most 100 nM. Besides, the maximal fold induction in assay [1] (Homo sapiens, T-cell) was below 2.

With `COc1cc2c(cc1Nc1ncc(Cl)c(N3CCc4ccccc43)n1)CN(CCO)CC2` [Example 27], the IC50 at HPK1 was at most 100 nM. Moreover, the maximal fold induction in assay [1] (Homo sapiens, T-cell) was above 2. For the same compound, in assay [1] (Homo sapiens, T-cell, IL-2 response, calculated with GraphPad Prism), the concentration for a half-maximal effect (EC50) was above 1000 nM. Further, in assay [1] (concentration of compound that gives 200% IL-2 response (2 folds) over DMSO control), the “EC2x (nM)” value was “+ (“+”, for greater than 1 μM)”.
